Reference: patent US20080085889A1, “Amidomethyl-Substituted 1-(Carboxyalkyl) Cyclopentyl-Carbonylamino-Benzazepine-N-Acetic Acid Compounds, Process and Intermediate Products for Their Preparation and Pharmaceutical Compositions Containing Them” (SOLVAY PHARMACEUTICALS GmbH, priority 2003, published 2008)

Key:
[1] = test system: formation of ET-1 from Big-ET-1; experiment: In vivo inhibition of the Big-ET-1-induced blood pressure increase in anaesthetised rats, i.v. single dose; parameters: species or system Rats (Sprague-Dawley); conditions: 5 min before 0.5 nmol/kg Big-ET-1, negative values indicate inhibition
In short: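 Anaesthetised (Rompun/Ketavet) Sprague-Dawley rats got test substance i.v. via jugular vein, as a rule 10 μmol/kg, or vehicle; 5 min later 0.5 nmol/kg Big-ET-1 infused over 1 min. Carotid pressure recorded every 5 min for 30 min; value is % inhibition versus vehicle of maximum Big-ET-1-induced systolic pressure rise, negative values meaning inhibition.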

[2] = Plasma protein binding, equilibrium dialysis, rat plasma; type: in vitro ADME; conditions: rat plasma (10% for routine testing), 37° C., pH 7.4, 10% plasma (100% for low binders), read-out: % bound (rat plasma) (converted)
Experimental: (§1) Plasma protein binding of the test substances of Formula I was measured using a validated equilibrium dialysis method. The dialysis cells consisted of two halves separated by a semi-permeable membrane slightly tensioned in between. […] Before being used, the membranes were re-hydrated by soaking in water followed by the dialysis buffer. Plasma (10% for routine testing, and 100% for compounds found to have a low protein binding) was heated to 37° C. and adjusted to pH 7.4 before use. 5 μM test compound solutions (final dimethylsulfoxide concentration 0.5%) were prepared in isotonic phosphate buffer containing rat or human plasma. The plasma-containing solution was on one side of the membrane, and the plasma-free on the other. Incubations were performed overnight (10% plasma assay), or for 2 hours (100% plasma assay) in triplicate. The cells were mounted in a drive unit that rotated the cells and ensured a uniform equilibrium was obtained. The equilibrium was temperature controlled by the drive unit being immersed in a water bath at 37° C. At the end of the equilibration time, the cells were emptied. The solutions for each batch of compounds were combined into two groups (plasma-free and plasma-containing) then cassette analysed by LC-MS/MS using two sets of calibration standards for plasma-free (7 points) and plasma-containing solutions (6 points). The percentage of protein bound compound was calculated as follows: [formula] PC=sample concentration in protein containing side; PF=sample concentration in protein free side;

[3] = Plasma protein binding, equilibrium dialysis, human plasma; type: in vitro ADME; conditions: human plasma (10% for routine testing), 37° C., pH 7.4, 10% plasma (100% for low binders), read-out: % bound (human plasma) (converted)
Experimental: as §1

[4] = target: T1, soluble, human recombinant NEP (Homo sapiens, UniProt P08473); experiment: In-vitro investigation of the NEP inhibitory action (fluorescence-quenched Big-ET-1 analogue, HPLC); type: biochemical
T1 construct: soluble, human recombinant NEP; purchased Prof; Crine, University of Montreal, Canada
T1 sequence (P08473 52-750 limits assumed): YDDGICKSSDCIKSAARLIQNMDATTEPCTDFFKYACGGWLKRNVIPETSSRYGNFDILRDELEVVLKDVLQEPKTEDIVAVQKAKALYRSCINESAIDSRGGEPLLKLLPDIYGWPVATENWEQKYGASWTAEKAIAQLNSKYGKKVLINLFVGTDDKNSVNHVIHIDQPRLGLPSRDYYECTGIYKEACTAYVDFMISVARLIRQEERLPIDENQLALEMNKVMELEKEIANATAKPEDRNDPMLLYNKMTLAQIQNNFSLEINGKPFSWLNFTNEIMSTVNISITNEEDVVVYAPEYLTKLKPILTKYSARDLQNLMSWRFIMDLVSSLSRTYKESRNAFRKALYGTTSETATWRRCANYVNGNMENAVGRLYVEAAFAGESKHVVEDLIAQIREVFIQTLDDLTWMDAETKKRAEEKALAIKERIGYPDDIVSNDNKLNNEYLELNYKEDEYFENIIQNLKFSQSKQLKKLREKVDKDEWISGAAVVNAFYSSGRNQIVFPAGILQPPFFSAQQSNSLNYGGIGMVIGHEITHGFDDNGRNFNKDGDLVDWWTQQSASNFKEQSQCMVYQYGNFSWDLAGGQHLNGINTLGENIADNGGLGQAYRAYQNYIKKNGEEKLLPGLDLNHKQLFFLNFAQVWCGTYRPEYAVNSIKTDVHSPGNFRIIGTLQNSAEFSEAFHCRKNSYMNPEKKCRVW
In short: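 Enzyme preincubated with test substance 15 min at 37° C, then incubated with fluorescence-quenched Mca peptide substrate 60 min at 37° C and stopped by heating to 95° C. Cleaved and intact peptide separated by reversed-phase HPLC; unquenched Mca peak area (ex 328/em 393 nm) gave % inhibition versus no-compound control, duplicates, IC50 derived.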

[5] = Rattus norvegicus, iv, 10 μmol/kg, read-out: % substance-related inhibition of the maximum Big-ET effect on SAP vs. control

Row | Compound | change in vivo at 10 µmol/kg [1, 5] [%] | fraction unbound at 5 μM [2] | fraction unbound at 5 μM [3] | IC50 [4] [nM] | change in vivo at 0.3 µmol/kg ([1]; Rattus norvegicus, iv, 0.3 μmol/kg, read-out: % substance-related inhibition of the maximum Big-ET effect on SAP vs. control) [%] | % substance-related inhibition of the maximum Big-ET effect on SAP vs. control ([1]; 10 μmol/kg) [%]
1 | CC(C)NC(=O)CC(CC1(C(=O)N[C@H]2CCc3ccccc3N(CC(=O)O)C2=O)CCCC1)C(=O)O (stereo in doubt) [Example 3, (2″rel1″)-2-{[(3S)-1-({[1-(carboxymethyl)-2-oxo-2,3,4,5-tetrahydro-1H-1-benzazepin-3-yl]amino}-carbonyl)cyclopentyl]methyl}-4-(isopropylamino)-4-oxobutyric acid] | -94 | 0.31 | 0.58 | 17.9 |  | 
2 | CN(C)CCCN(C)C(=O)CC(CC1(C(=O)NC2CCc3ccccc3N(CC(=O)O)C2=O)CCCC1)C(=O)O (stereo not shown) [Example 64, 2-[(1-{[1-(carboxymethyl)-2-oxo-2,3,4,5-tetrahydro-1H-1-benzazepin-3-yl]carbamoyl}cyclopentyl)methyl]-4-{[3-(dimethylamino)propyl](methyl)amino}-4-oxobutanoic acid] | -108 | 0.83 | ~1 | 9 |  | 
3 | CCN(CCCCN)C(=O)CC(CC1(C(=O)NC2CCc3ccccc3N(CC(=O)O)C2=O)CCCC1)C(=O)O [Example 81, (2″rel1″)-4-[(4-aminobutyl)(ethyl)amino]-2-{[1-({[(3S)-1-(carboxymethyl)-2-oxo-2,3,4,5-tetrahydro-1H-1-benzazepin-3-yl]amino}carbonyl)cyclopentyl]methyl}-4-oxobutanoic acid] |  | 0.36 | 0.34 | 4 | -73 | 
4 | {(3S)-3-[({1-[(2″rel1″)-2-ethoxycarbonyl)-4-(isopropylamino)-4-oxobutyl]cyclopentyl}-carbonyl)amino]-2-oxo-2,3,4,5-tetrahydro-1H-1-benzazepin-1-yl}acetic acid [Example 4] |  |  |  |  |  | −95
